Values of other authors in US11877989B2, “Nutritional supplement containing L-α-glycerophosphorylcholine” (Energy Beverages LLC, priority 2020, dated 2024).

Assays:
subjects [1] = conditions: in vivo
[2] = six weeks of supplementation
[3] = system: patients after stroke or transient ischemic attacks; conditions: 1000 mg daily for 28 days, then 400 mg three times per day for 5 months
[4] = system: amnesia caused by scopolamine; conditions: oral
subjects [5] = conditions: 600 mg per day, after 6 days
healthy male subjects = conditions: 1000 mg ingested, 60 min after taking
[6] = in vivo and in vitro assays
rats [7] = conditions: up to 1000 mg/kg/day
subjects [8] = system: subjects
[9] = single intramuscular dose
beagles = conditions: up to 300 mg/kg/day
rats [10] = system: rats
[11] = dose of 6 mg/kg

## CC(C)C[C@H](NC(=O)CN(C)C(=N)N)C(=O)O [Creatyl-L-leucine, creatyl-L-leucine]
other
  solubility relative to creatine and L-leucine: more soluble than either creatine or L-leucine

## CCNC(=O)CC[C@H](N)C(=O)O [L-theanine, N^5-ethyl-L-glutamine]
Subjects [1]
  cognitive function, including verbal fluency, versus placebo: improved

## C[N+](C)(C)CC(=O)[O-] [trimethylglycine]
[2]
  effects of supplementation on body composition, arm size, bench press work capacity and urinary HCTL: improve body composition, arm size, and bench press work capacity, and to attenuate the rise in urinary homocysteine thiolactone (HCTL)

## L-α-glycerophosphorylcholine [α-GPC]
[3]
  cognitive recovery: assists in the cognitive recovery
[4]
  effect on amnesia caused by scopolamine in passive avoidance: reverses amnesia
[4]; 5 h before training
  dose of peak effect: 600 mg/kg
Subjects [5]
  lower body force production: increased lower body force production
Healthy male subjects
  plasma growth hormone secretion versus placebo: increased significantly
[6]
  mutagenic activity: devoid of mutagenic activity
Rats [7]
  symptomology in sub-chronic and chronic oral toxicity studies: reduced activity; slight decreases in food consumption and body weight gain; and slight reduction in liver weight
Subjects [8]; 600 mg
  peak bench press force, greater: 14%
Subjects [8]; 600 mg single dose
  increase of peak growth hormone levels: 44 fold
  peak growth hormone level after supplementation: 8.4 ± 2.1 ng/mL
Subjects [8]; 600 mg single dose, starting value
  peak growth hormone level before supplementation: 0.19 ± 0.06 ng/mL
[9]
  return of plasma choline concentration to baseline: returned to near baseline values over a six hour period
  time of peak plasma choline levels: within about half an hour after the injection
beagles
  symptomology in sub-chronic and chronic oral toxicity studies: reduced activity; slight decreases in food consumption and body weight gain; and slight reduction in liver weight
Rats [10]
  oral LD50: ≥ 10,000 mg/kg
[11]
  improvement of accuracy during a reaction-time test: 12%
  increase of upper body power output: 12%
mice
  oral LD50: ≥ 10,000 mg/kg
